Measurements from patent publication US10413555B2, “Treatment of skin atrophy with a combination of triiodothyroacetic acid (TRIAC) and dehydroepiandrosterone (DHEA)” (TROPHEA DEVELOPMENT AB, priority 2014, dated 2019).
Like-named read-outs stand apart in the source and are kept apart here.

How the values were obtained:
[1] = topical corticosteroid, Group III; cited from earlier work
[2] = Ames' test; type: cell-based
Text: (§1) The genotoxic potential of TRIAC has been investigated in the Ames' test and in in vitro chromosome aberration assay in cultured human peripheral lymphocytes.

[3] = system: cultured human peripheral lymphocytes; test: In vitro chromosome aberration assay; type: cell-based
Text: as §1

[4] = system: mice; details: cited from earlier work
[5] = system: psoriasis; details: TRIAC 0.1% ointment; cited from earlier work
[6] = system: procollagen I and III; details: cited from earlier work
[7] = system: patients with skin atrophy on the dorsum of their hands; details: cited from earlier work
[8] = system: thyroid hormone levels; details: cited from earlier work
[9] = system: metabolic effects; details: cited from earlier work
[10] = system: rats; details: cited from earlier work
[11] = system: rats; details: rat, in vivo, 2000 mg/kg; cited from earlier work
[12] = system: Procollagen I (PINP); test: PINP in suction blister fluid from skin pretreated with betamethasone valerate, then treated with test formulations; type: in vivo, human; details: suction blister fluid after 14 days treatment
Text: Six healthy male volunteers aged 40-65 years. Criteria for exclusion are: treatment with systemic or topical glucocorticoids, ongoing serious infections, immunosuppression.
TRIAC and DHEA were obtained from Sigma. They were mixed with Essex cream (Merck) to obtain 4 different study formulations: • A. 0.03% TRIAC in Essex cream • B. 0.03% TRIAC and 2% DHEA in Essex cream • C. Essex cream alone. • D. 2% DHEA in Essex cream
A proof-of-concept, single blinded, open prospective study comparing, TRIAC, DHEA and the combination of the two as compared with non-active treatment on short-term glucocorticoid-induced skin atrophy.
The test area was normal looking abdominal skin in 6 male volunteers. Four different skin areas of 10×10 cm were marked with a permanent marker pen.
All areas were pretreated twice daily with betametasone valerate (Betnovate, GSK) 0.5 gr twice daily for 21 days. Then each test area was treated, with 0.5 gr twice daily of one of the test formulations, for 14 days.
Suction blisters were induced with a disposable device (Dermovac, Ventipress, Lappeeranta, Finland) placed on the test areas and connected to a vacuum pump with a vacuum of approximately 60 mm Hg. Each device produces five suction blisters within approximately one hour. The resulting fluid was collected, using a syringe, and then combined and frozen at −70° C. […]

[13] = system: post-menopausal women; details: DHEA 1% formulation, topical, facial and hand skin, 4 months, versus vehicle; cited from earlier work
[14] = system: elderly people; details: oral route; cited from earlier work

SMILES: CCCCC(=O)O[C@]1(C(=O)CO)[C@@H](C)C[C@H]2[C@@H]3CCC4=CC(=O)C=C[C@]4(C)[C@@]3(F)[C@@H](O)C[C@@]21C [Betamethasone valerate]
- potency relative to hydrocortisone [1]: 50-100 times

SMILES: O=C(O)Cc1cc(I)c(Oc2ccc(O)c(I)c2)c(I)c1 [TRIAC, triiodothyroacetic acid]
- genotoxic potential [2]: no genotoxic potential
- genotoxic potential [3]: no genotoxic potential
- skin thickness in mice pretreated with betamethasone valerate ([4]; TRIAC alone, 0.03%): could restore skin thickness
- effect on skin atrophy induced by potent topical glucocorticoids ([4]; topical administration, mice): prevents skin atrophy
- skin thickness of normal skin ([4]; topical, mice): increase skin thickness
- side effects ([4]; topical, compared with vitamin A and D derivatives): no side effects were seen
- effect on psoriasis in comparison with placebo [5]: no statistically significant effects
- safety of topical treatment [5]: safe
- procollagen I and III compared to placebo ([6]; TRIAC 0.03% and 0.1% cream, both groups, 7 days after start of treatment, pre-treatment with topical betamethasone 17-valerate): statistically significant increase
- PINP synthesis compared to placebo ([6]; TRIAC 0.03% cream, healthy volunteers, skin pretreated with betamethasone valerate): significantly more effective
- skin thickness in epidermis and dermis ([7]; TRIAC 0.1% cream, after 8 weeks of treatment): significantly higher
- effect on glucocorticoid-induced skin atrophy ([7]; topical, patients treated with potent topical corticosteroids for hand eczema): appears to reverse glucocorticoid-induced skin atrophy
- effects on thyroid hormone levels ([8]; all 3 clinical studies, after 8 weeks treatment): no significant effects
- other blood analysis ([8]; clinical studies (15-16)): normal levels
- dose necessary to obtain similar metabolic effects, relative to T3 ([9]; human, in vivo): greater than 15 times
- dose necessary to obtain similar metabolic effects, relative to T4 ([9]; human, in vivo): > 10 times
- tachycardia compared with T4 or T3 ([9]; human, in vivo): does not evoke tachycardia as effectively as T4 or T3
- tolerability ([9]; oral administration, daily doses of 3.4 mg, up to 3 weeks): well tolerated
- lowest lethal dose ([10]; rat, in vivo, ip): 100 mg/kg
- LD50 ([10]; single dose, intraperitoneal, female rats): 295 mg/kg
- LD50 ([10]; single dose, intraperitoneal, male rats): 143 mg/kg
- no observed effect level (NOEL) ([10]; single dose, intraperitoneal, suspended in 0.8% hydroxyl propyl methylcellulose gel, rats): 46.4 mg/kg
- general toxicity and local irritation [11]: neither any clinical signs of general toxicity nor any local irritation

SMILES: C[C@]12CC[C@H](O)CC1=CC[C@@H]1[C@@H]2CC[C@]2(C)C(=O)CC[C@@H]12 [DHEA, dehydroepiandrosterone]
- PINP concentration, comparison between treatments [12]: only slightly better than treatment with placebo
- effect on skin aging features [13]: improved skin brightness and counteract papery appearance of the skin and epidermal atrophy
- effect on skin conditions [14]: positive effect
